Measured values from patent US20020164368A1, “Male contraceptive method and composition” (priority 2000, published 2002).

What follows are compounds tested against T1, Acrosin (purified from boar sperm) (Sus scrofa, UniProt P08001) (assay: Acrosin inhibition in vitro (BAPNA substrate)). Conditions: not given.
T1 construct: Acrosin (200 μl, purified from boar sperm); from tissue; host or cells: boar sperm
T1 sequence (P08001 17-415): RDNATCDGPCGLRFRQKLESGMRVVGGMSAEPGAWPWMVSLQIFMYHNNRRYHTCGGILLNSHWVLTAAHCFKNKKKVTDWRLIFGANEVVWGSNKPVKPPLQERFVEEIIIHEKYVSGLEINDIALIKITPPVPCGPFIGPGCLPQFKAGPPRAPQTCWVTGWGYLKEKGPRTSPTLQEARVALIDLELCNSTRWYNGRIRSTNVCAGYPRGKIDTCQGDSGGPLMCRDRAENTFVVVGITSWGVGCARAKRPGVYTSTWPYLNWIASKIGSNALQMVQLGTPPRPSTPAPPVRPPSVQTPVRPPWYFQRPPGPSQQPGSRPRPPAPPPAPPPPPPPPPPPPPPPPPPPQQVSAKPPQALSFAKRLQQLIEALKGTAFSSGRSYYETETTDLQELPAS
Format: biochemical
Protocol: The inhibition of acrosin is assessed in vitro using benzoyl arginine p-nitroanilide (BAPNA) as the enzyme substrate according to the following procedure. Acrosin (200 μl, purified from boar sperm) and a solution of the test compound (200 μl, 10 mg/ml., or 50 μl, 1 mg/ml) in 0.05 M triethanolamine buffer, pH 7.8, are incubated at room temperature for 5 minutes. A control using the buffer solution without the test compound added is also run. A 200 μl-sample of the incubation mixture is then withdrawn and is added to a cuvettecontaining BAPNA (1 ml) and triethanolamine buffer (2 ml). The mixture is stirred and placed in a Gilford recording spectrophotometer. The increase in optical density at 383 mn is measured. One unit of acrosin activity is defined as the amount of acrosin which will cause an increase in optical density at 383 mn of 0.001/minute. One unit of inhibitory activity is defined as the amount of inhibitor which will cause a reduction in the increase in optical density at 383 nm of 0.001/minute.

| Compound | acrosin inhibition activity (in words) |
| --- | --- |
| O=S(=O)([O-])Oc1ccc(OS(=O)(=O)[O-])c2ccccc12.[Na+].[Na+] [Compound 28] | The following compounds have also been found to have acrosin inhibition |
| O=S(=O)([O-])Oc1c[nH]c2ccccc12.[Na+] [Compound 29] | The following compounds have also been found to have acrosin inhibition |

Same assay, conditions: Conc. of Test Solution 10 Mg/ml

| Compound | Inhibition (units/mg.) |
| --- | --- |
| CCCCCCCCCCCCOS(=O)(=O)[O-].[Na+] [n-dodecyl] | 0 |

Same assay, conditions: Other salts ROSO3M; Conc. of Test Sol. 10 mg/ml

| Compound | Inhibition (units/mg) |
| --- | --- |
| CCCCCCCCCCCCOS(=O)(=O)O.OCCN(CCO)CCO [CH3(CH2)11— triethanol-ammonium] | 90,000 units/mg |
| CCCCCCCCCCCCOS(=O)(=O)O.OCCNCCO [CH3(CH2)11— diethanol-ammonium] | 90,000 units/mg |

These compounds were tested on Dutch Belted male rabbits of proven fertility (assay: Antifertility effects in vivo, oral dosing of male rabbits). Conditions: administered to male rabbits, procedures of Example 4.
Parameters: species or system rabbit
Protocol: The animals (of proven fertility) are then bred and the genital system of the females is examined to determine the number of embryos.
Dutch Belted male rabbits of proven fertility were randomly selected. They were given 10 mg/kg tetradecyl sodium sulfate suspended in Ca++ free Ringer's solution by gavage. Control animals were given Ca++ free Ringer's solution by gavage. The male rabbits were dosed each day for 3 days and they were bred to females 2 hours after dosing and again 8 hours after dosing. The female rabbits were then given 100 IU human chorionic gonadotrophin (HCG) to stimulate ovulation. Twenty four hours after the last dose of tetradecyl sodium sulfate the male rabbits were bred and the females treated as before. After twelve days the female rabbits were sacrificed and examined for embryos.

| Compound | activity as male contraceptives |
| --- | --- |
| a ethyl a sulfodocosanoate [Compound 31] | activity as male contraceptives |

What follows are compounds tested against T2, Testicular bovine hyaluronidase (Bos taurus, UniProt Q2YDK3) (assay: Hyaluronidase inhibition in vitro (chondroitin sulfate agar plate)). Conditions: Conc. of Test Solution 1 Mg/ml.
T2 construct: Testicular bovine hyaluronidase (Sigma Chemical Company); purchased Sigma Chemical Company; host or cells: bovine testes
T2 sequence (Q2YDK3 36-553): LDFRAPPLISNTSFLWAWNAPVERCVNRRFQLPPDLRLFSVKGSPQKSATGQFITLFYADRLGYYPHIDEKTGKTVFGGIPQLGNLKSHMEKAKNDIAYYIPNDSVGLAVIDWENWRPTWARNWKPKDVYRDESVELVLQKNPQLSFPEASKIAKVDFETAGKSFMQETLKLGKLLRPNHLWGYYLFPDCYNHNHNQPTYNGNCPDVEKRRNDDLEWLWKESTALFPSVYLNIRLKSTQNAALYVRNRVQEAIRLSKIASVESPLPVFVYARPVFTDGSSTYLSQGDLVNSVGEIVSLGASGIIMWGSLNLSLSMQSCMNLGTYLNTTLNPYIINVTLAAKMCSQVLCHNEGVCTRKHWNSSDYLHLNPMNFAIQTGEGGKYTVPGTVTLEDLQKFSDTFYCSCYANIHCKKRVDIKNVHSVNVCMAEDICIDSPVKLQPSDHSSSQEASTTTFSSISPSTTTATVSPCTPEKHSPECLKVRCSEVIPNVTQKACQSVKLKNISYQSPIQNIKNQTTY
Format: biochemical
Protocol: The inhibition of hyaluronidase was assessed using chondroitin sulfate as the enzyme substrate according to the following procedure. Agar plates containing chondroitin sulfate (0.1 percent) were prepared by the following method: water solutions of I percent agarose, 2 M sodium chloride (0.1 vol.), 1 M sodium acetate (pH 5.0, 0.1 vol), and sodium azide (0.5 mg/ml, 0.1 vol.) qe mixed and the mixture is brought to the boiling temperature. After cooling to about 65° C., a solution of chondroitin sulfate (10 mgtml, 0.1 vol.) is added. After cooling to about 45° C., the resulting mixture (20 ml) is poured onto a petri dish. The plates are allowed to cool to room temperature. A well 2 mm in diameter is then cut in the agar surface. […] A control using only the buffer solution without added test compound is also run. The plates are then incubated overnight (about 16 hours) at 37° C. The zones of hydrolysis of chondroitin sulfate by hyaluronidase are visualized by flooding the plate with 10 percent cetyl trimethyl ammonium bromide. The area of the zone is logarithmically proportional to the concentration of hyaluronidase. Inhibitor activity is determined by comparing the area of hydrolysis from the test compound to the area of hydrolysis from the control. The results are expressed as percent inhibition calculated as follows: [formula]

| Compound | % Inhibition [%] |
| --- | --- |
| CCCCCCCCCCCCCCCCCCCCCCCCCCCOS(=O)(=O)O [n-heptacosyl] | 0 |
| CCCCCCCC(CCCCCC)OS(=O)(=O)O (stereo not shown) [Compound 7-tetradecyl] | 0 |
| CCCCCCCCCCCCC(C)OS(=O)(=O)O (stereo not shown) [Compound 2-tetradecyl] | 100 |
| CCCCCCCCCC(CCCCCCCC)OS(=O)(=O)O (stereo not shown) [Compound 9-octadecyl] | 7 |
| CC(C)CCCC(C)CCCC(C)CCOS(=O)(=O)[O-].[Na+] (stereo not shown) [3,7,11-trimethyldodecyl] | 39 |
| CCCCCCCCC(CCCCC)OS(=O)(=O)O (stereo not shown) [Compound 6-tetradecyl] | 12 |
| CCCCCCCC/C=C\CCCCCCCCOS(=O)(=O)O [oleyl] | 0 |
| CCCCCCCCCCC(CCC)OS(=O)(=O)[O-].[Na+] (stereo not shown) [Compound 4-tetradecyl] | 0 |
| CCCCC/C=C\C/C=C\CCCCCCCCOS(=O)(=O)O [linoleyl] | 0 |
| CCCCCCCCC(CCCCCCC)OS(=O)(=O)O (stereo not shown) [Compound 8-hexadecyl] | 0 |
| CCCCCCCCCCCCCCCCCCCCCCOS(=O)(=O)O [n-docosyl] | 0 |
| CCCCCCCCCCC(CCCCCCCC)COS(=O)(=O)O (stereo not shown) [2-octyldodecyl] | 0 |
| CCCC/C=C\CCCCCCCCOS(=O)(=O)O [myristoleyl] | 13 |
| CCCC/C=C/CCCCCCCCOS(=O)(=O)[O-].[Na+] [myristeladyl] | 13 |
| CCCCCCCCCCCCCCCCCCCCCCCCOS(=O)(=O)O [n-tetracosyl] | 0 |
| CC(C)CCCC(C)CCOS(=O)(=O)O (stereo not shown) [tetrahydrogeranyl] | 0 |
| CC(C)CCCCCCCCCCCOS(=O)(=O)O [12-methyltridecyl] | 7 |
| CCCCCCCCCC(CCCCCC)OS(=O)(=O)O (stereo not shown) [Compound 7-hexadecyl] | 0 |

Same assay, conditions: Conc. of Test Solution 10 Mg/ml

| Compound | % Inhibition [%] |
| --- | --- |
| CCCCCCCCCCCCCCCCCCCCOS(=O)(=O)O [n-eicosyl] | 0 |
| CCCCCCCCCCCCOS(=O)(=O)[O-].[Na+] [n-dodecyl] | 71 |
| CCCCCCCCCCCCCCCOS(=O)(=O)O [n-pentadecyl] | 60 |
| CCCCCCCCCCCCCOS(=O)(=O)O [n-tridecyl] | 80 |
| CCCCCCCCCCCOS(=O)(=O)O [n-hendecyl] | 100 |
| CCCCCCCCCCCCCCCCCCOS(=O)(=O)O [n-octadecyl] | 30 |
| CCCCCCCCCCCCCCCCOS(=O)(=O)O [n-hexadecyl] | 75 |
| CCCCCCCCCCCCCCCCCOS(=O)(=O)O [n-heptadecyl] | 23 |

Same assay, conditions: Other salts ROSO3M; Conc. of Test Sol. 10 (mg/ul)

| Compound | % Inhibition [%] |
| --- | --- |
| CCCCCCCCCCCCOS(=O)(=O)O.OCCN(CCO)CCO [CH3(CH2)11— triethanol-ammonium] | 100 |
| CCCCCCCCCCCCOS(=O)(=O)O.OCCNCCO [CH3(CH2)11— diethanol-ammonium] | 100 |
